Converted amounts (≈) assume the structure as drawn. The source made the active and inactive calls. The rule behind the calls is not given here.
Key:
[1] = system: Candida albicans; experiment: Antifungal activity against FLC-resistant Candida albicans 901 assessed as fungal growth inhibition incubated for 72 hrs by CLSI based susceptibility test; assay type: functional
[2] = system: Candida tropicalis; experiment: Antifungal activity against Candida tropicalis ATCC 1369 assessed as fungal growth inhibition incubated for 72 hrs by CLSI based susceptibility test; assay type: functional
[3] = system: Candida albicans; experiment: Antifungal activity against FLC-resistant Candida albicans 632 assessed as fungal growth inhibition incubated for 72 hrs by CLSI based susceptibility test; assay type: functional
[4] = system: Candida albicans; experiment: Antifungal activity against FLC-resistant Candida albicans 904 assessed as fungal growth inhibition incubated for 72 hrs by CLSI based susceptibility test; assay type: functional
[5] = Toxicity in BALB/c mouse infected with Candida albicans 901 assessed as pathological change in heart at 0.5 ug/g administered 6 times measured after 4 days by H and E staining based analysis; assay type: tissue-based; details: in vivo, 96 h, dose 0.5 µg/g, time 4 day
[6] = system: Candida albicans; experiment: Antifungal activity against FLC-resistant Candida albicans 17# assessed as fungal growth inhibition incubated for 72 hrs by CLSI based susceptibility test; assay type: functional
[7] = system: Candida albicans; experiment: Antifungal activity against FLC-resistant Candida albicans CaR assessed as fungal growth inhibition incubated for 72 hrs by CLSI based susceptibility test; assay type: functional
[8] = system: Candida albicans; experiment: Antifungal activity against Candida albicans 901 infected in BALB/c mouse assessed as repair of tissue damage at 0.5 ug/g administered 6 times measured after 4 days by Masson staining based analysis; assay type: functional, organism-based; details: dose 0.5 µg/g, time 4.0 day
[9] = system: Candida albicans; experiment: Antifungal activity against Candida albicans SC5314 assessed as fungal growth inhibition incubated for 72 hrs by CLSI based susceptibility test; assay type: functional
[10] = system: Candida albicans; experiment: Induction of apoptosis in Candida albicans SC5314 assessed as apoptotic cells incubated for 48 hrs by annexin V-FITC/PI staining based flow cytometry (reference value: 2.12 %); assay type: functional
[11] = system: Candida albicans; experiment: Induction of morphological changes in Candida albicans SC5314 assessed as accumulation of low-density granules measured for 96 to 144 hrs by TEM analysis; assay type: functional, organism-based; details: time 96-144 hrs
[12] = system: Mus musculus; experiment: Antiinflammatory activity in BALB/c mouse infected with Candida albicans 901 assessed as decrease in INF-gamma level at 0.5 ug/g administered 6 times measured after 4 days by IHC analysis; assay type: functional, organism-based; details: dose 0.5 µg/g, time 4.0 day
[13] = system: Candida albicans; experiment: Induction of morphological changes in Candida albicans SC5314 assessed as edematous vacuoles measured for 96 to 144 hrs by TEM analysis; assay type: functional, organism-based; details: time 96-144 hrs
[14] = system: Candida albicans; experiment: Antifungal activity against Candida albicans 901 infected in BALB/c mouse assessed as decrease in collagen fiber content at 0.5 ug/g administered 6 times measured after 4 days by GMS staining based analysis; assay type: functional, organism-based; details: dose 0.5 µg/g, time 4.0 day
[15] = Drug uptake in Candida albicans SC5314 assessed as increase in blue fluorescence by hoechst 33256 staining based imaging analysis; assay type: ADME
[16] = Toxicity in BALB/c mouse infected with Candida albicans 901 assessed as pathological change in lung at 0.5 ug/g administered 6 times measured after 4 days by H and E staining based analysis; assay type: tissue-based; details: in vivo, 96 h, dose 0.5 µg/g, time 4 day
[17] = system: Candida albicans; experiment: Induction of morphological changes in Candida albicans SC5314 assessed as reduction in cytoplasmic density measured for 96 to 144 hrs by TEM analysis; assay type: functional, organism-based; details: time 96-144 hrs
[18] = system: Candida albicans; experiment: Induction of morphological changes in Candida albicans SC5314 assessed as change in cell structure measured after 48 hrs by TEM analysis; assay type: functional, organism-based
[19] = Toxicity in BALB/c mouse infected with Candida albicans 901 assessed as plasma AST level at 0.5 ug/g administered 6 times measured after 4 days (reference value: 50.6 +/- 2.3 IU/L); details: in vivo, 96 h, dose 0.5 µg/g, time 4 day
[20] = system: Candida albicans; experiment: Antifungal activity against Candida albicans 901 infected in BALB/c mouse assessed as restoration of infected tissue morphology at 0.5 ug/g administered 6 times measured after 4 days by H and E staining based analysis; assay type: functional, organism-based; details: dose 0.5 µg/g, time 4.0 day
[21] = Toxicity in BALB/c mouse infected with Candida albicans 901 assessed as pathological change in kidney at 0.5 ug/g administered 6 times measured after 4 days by H and E staining based analysis; assay type: tissue-based; details: in vivo, 96 h, dose 0.5 µg/g, time 4 day
[22] = system: Candida albicans; experiment: Antifungal activity against Candida albicans 901 infected in BALB/c mouse assessed as disappearance of nuclear aggregation in lesion at 0.5 ug/g administered 6 times measured after 4 days by H and E staining based analysis; assay type: functional, organism-based; details: dose 0.5 µg/g, time 4.0 day
[23] = system: Mus musculus; experiment: Antiinflammatory activity in BALB/c mouse infected with Candida albicans 901 assessed as decrease in COX-2 level at 0.5 ug/g administered 6 times measured after 4 days by IHC analysis; assay type: functional, organism-based; details: dose 0.5 µg/g, time 4.0 day
[24] = system: Candida albicans; experiment: Antifungal activity against Candida albicans 901 infected in BALB/c mouse assessed as inhibition of fungal proliferation at 0.5 ug/g administered 6 times measured after 4 days by Masson staining based analysis; assay type: functional, organism-based; details: dose 0.5 µg/g, time 4.0 day
[25] = system: Candida albicans; experiment: Induction of morphological changes in Candida albicans SC5314 assessed as leakage of cell contents measured for 96 to 144 hrs by TEM analysis; assay type: functional, organism-based; details: time 96-144 hrs
[26] = system: Candida albicans; experiment: Induction of mitochondrial membrane depolarization in Candida albicans SC5314 by JC-1 staining based flow cytometry (reference value: 12.51 %); assay type: functional
[27] = target: Programmed cell death 1 ligand 1 (Homo sapiens, UniProt Q9NZQ7); experiment: Binding affinity to PD-L1 (unknown origin) immobilized on carboxy chip assessed as dissociation constant by SPR analysis
[28] = Drug uptake in Candida albicans SC5314 assessed as increase in green fluorescence by imaging analysis; assay type: ADME
[29] = Toxicity in BALB/c mouse infected with Candida albicans 901 assessed as plasma BUN level at 0.5 ug/g administered 6 times measured after 4 days (reference value: 20.4 +/- 1.5 mmol/L); details: in vivo, 96 h, dose 0.5 µg/g, time 4 day
[30] = system: Nakaseomyces glabratus; experiment: Antifungal activity against Candida glabrata assessed as fungal growth inhibition incubated for 72 hrs by CLSI based susceptibility test; assay type: functional
[31] = system: Candida albicans; experiment: Antifungal activity against Candida albicans 901 infected in BALB/c mouse assessed as repair of tissue damage at 0.5 ug/g administered 6 times measured after 4 days by GMS staining based analysis; assay type: functional, organism-based; details: dose 0.5 µg/g, time 4.0 day
[32] = system: Candida albicans; experiment: Induction of morphological changes in Candida albicans SC5314 assessed as disappearance of nuclear domains measured for 96 to 144 hrs by TEM analysis; assay type: functional, organism-based; details: time 96-144 hrs
[33] = Toxicity in BALB/c mouse infected with Candida albicans 901 assessed as toxic side effects at 0.5 ug/g administered 6 times measured after 4 days; details: in vivo, 96 h, dose 0.5 µg/g, time 4 day
[34] = target: Lanosterol 14-alpha demethylase (Candida albicans (strain SC5314 / ATCC MYA-2876) (Yeast), UniProt P10613); experiment: Inhibition of CYP51 in Candida albicans SC5314 assessed as unknown sterol level at 4 ug/ml incubated for 16 hrs by GC-MS analysis (reference value: 5.35 %); design: scale not given: the % may be the effect or the level left; details: at 4 µg/mL
[35] = system: Candida albicans; experiment: Antifungal activity against Candida albicans 901 infected in BALB/c mouse assessed as decrease in collagen fiber content at 0.5 ug/g administered 6 times measured after 4 days by Masson staining based analysis; assay type: functional, organism-based; details: dose 0.5 µg/g, time 4.0 day
[36] = system: Candida albicans; experiment: Induction of morphological changes in Candida albicans SC5314 assessed as decrease in cell membrane thickness measured after 48 hrs by TEM analysis; assay type: functional, organism-based
[37] = system: Candida albicans; experiment: Induction of morphological changes in Candida albicans SC5314 assessed as decrease in cell wall thickness measured after 48 hrs by TEM analysis; assay type: functional, organism-based

Sequence of Programmed cell death 1 ligand 1 (Q9NZQ7 whole entry): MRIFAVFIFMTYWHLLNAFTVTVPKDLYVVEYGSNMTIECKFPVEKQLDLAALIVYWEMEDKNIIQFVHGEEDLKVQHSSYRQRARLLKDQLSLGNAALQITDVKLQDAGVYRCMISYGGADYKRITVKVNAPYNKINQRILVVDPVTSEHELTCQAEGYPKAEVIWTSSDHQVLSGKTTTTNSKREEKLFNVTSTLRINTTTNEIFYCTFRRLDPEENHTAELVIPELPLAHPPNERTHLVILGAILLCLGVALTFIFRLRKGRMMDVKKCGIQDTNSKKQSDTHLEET
Sequence of Lanosterol 14-alpha demethylase (P10613 whole entry): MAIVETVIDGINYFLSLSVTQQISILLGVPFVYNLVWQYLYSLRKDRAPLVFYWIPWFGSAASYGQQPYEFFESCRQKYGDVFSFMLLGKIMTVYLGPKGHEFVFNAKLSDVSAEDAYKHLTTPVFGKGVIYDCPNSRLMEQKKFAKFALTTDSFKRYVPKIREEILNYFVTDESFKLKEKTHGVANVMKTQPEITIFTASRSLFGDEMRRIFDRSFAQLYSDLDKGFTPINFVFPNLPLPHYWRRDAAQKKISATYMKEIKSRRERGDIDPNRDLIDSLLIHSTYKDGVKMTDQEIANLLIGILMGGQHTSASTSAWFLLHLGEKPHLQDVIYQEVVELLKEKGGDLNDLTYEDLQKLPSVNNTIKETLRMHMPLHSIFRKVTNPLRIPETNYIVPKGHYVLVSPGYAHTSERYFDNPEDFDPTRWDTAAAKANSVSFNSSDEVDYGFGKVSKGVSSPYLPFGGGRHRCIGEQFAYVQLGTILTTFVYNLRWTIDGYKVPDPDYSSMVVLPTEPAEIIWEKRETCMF

Q: What does the source list for `COC(=O)[C@@H](Cn1cncn1)NCc1cccc(OCc2cccc(-c3ccccc3)c2C)c1`?
A: MIC50 [1]: 2 µg/mL (≈ 4.38 µM); MIC50 [2]: 0.5 µg/mL (≈ 1.1 µM); MIC50 [3]: 4 µg/mL (≈ 8.76 µM); MIC50 [4]: 2 µg/mL (≈ 4.38 µM); Activity [5]: Non-Toxic; MIC50 [6]: 4 µg/mL (≈ 8.76 µM); MIC50 [7]: 2 µg/mL (≈ 4.38 µM); Activity [8]: Active; MIC50 [9]: 0.125 µg/mL (≈ 0.274 µM); Activity [10]: 25.91%; Activity [11]: Active; Activity [12]: Active; Activity [13]: Active; Activity [14]: Active; Drug uptake [15]: Active; Activity [16]: Non-Toxic; Activity [17]: Active; Activity [18]: Active; Activity [19]: 57.4 IU/L; Activity [20]: Active; Activity [21]: Non-Toxic; Activity [22]: Active; Activity [23]: Active; inhibition [24]: Active; Activity [25]: Active; Activity [26]: 34.74%; Kd [27]: 15 nM; Drug uptake [28]: Active; Activity [29]: 24.7 mmol/L; MIC50 [30]: 0.125 µg/mL (≈ 0.274 µM); Activity [31]: Active; Activity [32]: Active; Activity [33]: Non-Toxic; Activity [34]: 6.65%; Activity [35]: Active; Activity [36]: Active; Activity [37]: Active
